This test deals with T1, endothelial lipase (EL) (Homo sapiens, UniProt Q9Y5X9).
T1 construct: transformed by RAGE technology (Athersys) to overexpress endogenous EL; endogenous in cells; conditioned medium used as the enzyme source
T1 sequence (Q9Y5X9 21-500): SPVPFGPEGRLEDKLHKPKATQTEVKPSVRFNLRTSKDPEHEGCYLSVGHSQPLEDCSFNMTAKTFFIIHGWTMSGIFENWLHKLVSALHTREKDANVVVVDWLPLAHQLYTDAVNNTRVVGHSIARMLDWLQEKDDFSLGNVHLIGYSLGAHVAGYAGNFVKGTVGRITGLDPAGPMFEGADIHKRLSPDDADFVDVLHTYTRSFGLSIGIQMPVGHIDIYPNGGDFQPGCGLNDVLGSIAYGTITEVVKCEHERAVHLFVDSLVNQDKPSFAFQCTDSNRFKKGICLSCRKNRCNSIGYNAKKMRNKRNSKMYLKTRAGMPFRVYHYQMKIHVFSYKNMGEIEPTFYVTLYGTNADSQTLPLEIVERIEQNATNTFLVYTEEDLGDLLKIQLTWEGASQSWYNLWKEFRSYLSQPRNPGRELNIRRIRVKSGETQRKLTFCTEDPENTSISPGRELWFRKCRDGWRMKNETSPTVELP
The test is described as follows: Endothelial lipase (EL) enzymatic assay with fluorescent substrate A10070 in DMPG vesicles. The format is biochemical. As to conditions: conditioned media from HT-1080 cells overexpressing endogenous EL, 20 min preincubation at 37° C. The procedure:
Endothelial lipase activity was measured using a fluorescent substrate, A10070, (Invitrogen, CA) doped into an artificial vesicle containing DMPG (Avanti Polar Lipids) as the excipient. Vesicles were prepared by combining 285 μL of 1 mM DMPG in a 1:1 mixture of MeOH and CHCl3 with 15 μL of 1 mM A10070 in a 1:1 mixture of MeOH and CHCl3. The mixture was dried under nitrogen and resuspended in 150 μL of 50 mM HEPES pH 8.0 buffer containing 100 mM NaCl and 0.2 mM EDTA. The sample was allowed to sit at rt for 15 min and then was sonicated 3×4 mins on ice with a Branson Sonicator using duty cycle 1. This preparation provides vesicles with a mole fraction of 0.05 for the FRET substrate.
The enzymatic assay was measured using white, opaque 96-well half area plates. Each well contained 60 μL of assay buffer (50 mM HEPES pH 8.0, 50 mM NaCl and 1 mM CaCl2) and 2 ul of a DMSO solution containing compound of interest. Conditioned media obtained from HT-1080 cells, which were transformed by RAGE technology (Athersys) to overexpress endogenous EL, was added and the reaction was allowed to incubate for 20 min at 37° C. with gentle agitation. The reaction was started by the addition of 20 μL of a 1:4 dilution of vesicles. The final total reaction volume was 100 μL. The reaction rates were measured on a Gemini plate reader with an excitation wavelength of 488 nm and a emission of 530 nm. Readings were taken every 20 seconds for 10 min with agitation between each reading. The slope of the linear portion of the readout was used to calculate the rate of the reaction.
The exemplified examples disclosed in the present invention were tested in the EL assay described above and found having EL inhibitory activity. A range of EL IC50 values of ≦10 μM (10000 nM) was observed.
`C[C@@H](NC(=O)c1[nH]c(=O)[nH]c(=O)c1N)c1cccc(-c2ccn(Cc3ccccc3)n2)c1` [Example 136, (R)-5-amino-N-(1-(3-(1-benzyl-1H-pyrazol-3-yl)phenyl)ethyl)-2,6-dioxo-1,2,3,6-tetrahydro-pyrimidine-4-carboxamide]: it took 0.02 µM to reach half-maximal inhibition (IC50). In the case of `C[C@H](COc1ccc(Cl)cc1F)NC(=O)c1[nH]c(=O)[nH]c(=O)c1N` [Example 72, (R)-5-amino-N-(1-(4-chloro-2-fluoro-phenoxy)propan-2-yl)-2,6-dioxo-1,2,3,6-tetrahydropyrimidine-4-carboxamide], the IC50 – broadly, the point on the concentration scale where inhibition reaches its midpoint – was found to be 1.39 µM. `Cc1nc2cc(OC[C@@H](C)NC(=O)c3[nH]c(=O)[nH]c(=O)c3N)ccc2s1` [Example 84, (R)-5-amino-N-(1-(2-methyl-benzo[d]thiazol-5-yloxy)propan-2-yl)-2,6-dioxo-1,2,3,6-tetrahydropyrimidine-4-carboxamide] returned an IC50 of 2 µM.

`COc1cc(C)c(OC)c2c1CC(CNC(=O)c1[nH]c(=O)[nH]c(=O)c1N)CC2` (stereo not shown) [Example 45, 5-amino-N-((5,8-dimethoxy-6-methyl-1,2,3,4-tetra-hydronaphthalen-2-yl)methyl)-2,6-dioxo-1,2,3,6-tetrahydropyrimidine-4-carboxamide] gave an IC50 of 0.078 µM. In the case of `C[C@H](COc1ccc(Cl)cc1C(=O)c1ccccc1)NC(=O)c1[nH]c(=O)[nH]c(=O)c1N` [Example 88, (R)-5-amino-N-(1-(2-benzoyl-4-chlorophenoxy)propan-2-yl)-2,6-dioxo-1,2,3,6-tetrahydropyrimidine-4-carboxamide], the IC50 is 0.509 µM. `C[C@@H](NC(=O)c1[nH]c(=O)[nH]c(=O)c1O)c1cccc(OCc2ccccc2)c1` [Example 182, (R)-N-(1-(3-(benzyloxy)phenyl)ethyl)-5-hydroxy-2,6-dioxo-1,2,3,6-tetrahydro-pyrimidine-4-carboxamide] displayed an IC50 of 0.01 µM. Consider `Nc1c(C(=O)NCc2cccc(-n3cnc4ccccc43)c2)[nH]c(=O)[nH]c1=O` [Example 28, N-(3-(1H-benzo[d]imidazol-1-yl)benzyl)-5-amino-2,6-dioxo-1,2,3,6-tetrahydropyrimidine-4-carboxamide], for which the IC50 is 2.2 µM.

In the case of `COc1ccc(CNc2c(C(=O)N[C@H](C)CCc3ccc(Cl)c(Cl)c3)[nH]c(=O)n(C)c2=O)cc1` [Example 171, (R)—N-(4-(3,4-Dichlorophenyl)butan-2-yl)-5-(4-methoxybenzylamino)-1-methyl-2,6-dioxo-1,2,3,6-tetrahydropyrimidine-4-carboxamide], inhibition was half-maximal at 0.358 µM (IC50).

Turning to `C[C@H](COc1ccc(Cl)c2c1CCC2)NC(=O)c1[nH]c(=O)[nH]c(=O)c1N` [Example 65, (R)-5-amino-N-(1-(7-chloro-2,3-dihydro-1H-inden-4-yloxy)propan-2-yl)-2,6-dioxo-1,2,3,6-tetrahydropyrimidine-4-carboxamide], the IC50 was determined as 0.223 µM. Regarding `C[C@@H](NC(=O)c1[nH]c(=O)[nH]c(=O)c1N)c1cc(-c2cnn(Cc3ccccc3)c2)ccc1O` [Example 143, (R)-5-amino-N-(1-(5-(1-benzyl-1H-pyrazol-4-yl)-2-hydroxyphenyl)ethyl)-2,6-dioxo-1,2,3,6-tetrahydro-pyrimidine-4-carboxamide], the IC50 was determined as 6.96 µM.
